Converted amounts (≈) assume the structure as drawn. Where two headings read alike, the source gives them in different places.
How the values were obtained:
[1] = Chemical stability under heating
Description: The anhydride and each of the hydrates was introduced into a glass vial and maintained at 70° C.

Staphylococcus aureus 77 = experiment: In vitro antibacterial activity (MIC, agar dilution), Biological Example 1; format: cell-based; settings: 18 h; Staphylococcus aureus 77, Table 25; read-out: Minimum Inhibitory Concentration
Pharmacokinetic test = format: in vivo; settings: rat, blood, 20 mg/kg, SD rats (male); for Cmax: read-out: Cmax (maximum blood concentration); for half-life: read-out: T1/2 (biological half life) (converted); for Tmax: read-out: Tmax (time showing maximum blood concentration); for bioavailability: printed in the IV line, read-out: F (bioavailability)
[2] = tested on: Staphylococcus epidermidis 887E; experiment: In vitro antibacterial activity (MIC, agar dilution), Biological Example 1; format: cell-based; settings: 18 h, Table 25, read-out: Minimum Inhibitory Concentration
[3] = tested on: Acinetobacter calcoaceticus 15473; experiment: as above; format: cell-based; settings: 18 h; Acinetobacter calcoaceticus 15473, Table 25; read-out: Minimum Inhibitory Concentration
[4] = tested on: Klebsiella aerogenes 1082E; experiment: as above; format: cell-based; settings: 18 h, Table 25, read-out: Minimum Inhibitory Concentration
[5] = tested on: Escherichia coli TEM9 2639E; experiment: microbe, parasite or virus in culture; format: cell-based; settings: TEM92639E, 18 h, read-out: Minimum Inhibitory Concentration
Enterobacter cloacae P99 = experiment: microbe, parasite or virus in culture; format: cell-based; settings: P99, 18 h, read-out: Minimum Inhibitory Concentration
[6] = tested on: Staphylococcus aureus giorgio; experiment: In vitro antibacterial activity (MIC, agar dilution), Biological Example 1; format: cell-based; settings: 18 h, Table 25, read-out: Minimum Inhibitory Concentration
[7] = tested on: Staphylococcus epidermidis 178; experiment: as above; format: cell-based; settings: 18 h; Staphylococcus epidermidis 178, Table 25; read-out: Minimum Inhibitory Concentration
Escherichia coli 3190Y = experiment: as above; format: cell-based; settings: 18 h, Table 25, read-out: Minimum Inhibitory Concentration
Escherichia coli 10536 = experiment: as above; format: cell-based; settings: 18 h; Escherichia coli 10536, Table 25; read-out: Minimum Inhibitory Concentration
[8] = tested on: Klebsiella aerogenes 1976E; experiment: as above; format: cell-based; settings: 18 h, Table 25, read-out: Minimum Inhibitory Concentration
Escherichia coli 851E = experiment: as above; format: cell-based; settings: 18 h, Table 25, read-out: Minimum Inhibitory Concentration
Bacillus subtilis 6633 = experiment: as above; format: cell-based; settings: 18 h; Bacillus subtilis 6633, Table 25; read-out: Minimum Inhibitory Concentration
[9] = tested on: Salmonella typimurium 14028; experiment: as above; format: cell-based; settings: 18 h; Salmonella typimurium 14028, Table 25; read-out: Minimum Inhibitory Concentration
Micrococcus luteus 9341 = experiment: as above; format: cell-based; settings: 18 h; Micrococcus luteus 9341, Table 25; read-out: Minimum Inhibitory Concentration
[10] = tested on: Enterobacter cloacae 1194E; experiment: microbe, parasite or virus in culture; format: cell-based; settings: 18 h, read-out: Minimum Inhibitory Concentration
[11] = tested on: Streptococcus faecalis 29212; experiment: In vitro antibacterial activity (MIC, agar dilution), Biological Example 1; format: cell-based; settings: Enterococcus faecalis, 18 h; Streptococcus faecalis 29212, Table 25; read-out: Minimum Inhibitory Concentration
[12] = tested on: Escherichia coli TEM5 3739E; experiment: microbe, parasite or virus in culture; format: cell-based; settings: TEM53739E, 18 h, read-out: Minimum Inhibitory Concentration
[13] = tested on: Pseudomonas aeruginosa 10145; experiment: In vitro antibacterial activity (MIC, agar dilution), Biological Example 1; format: cell-based; settings: 18 h; Pseudomonas aeruginosa 10145, Table 25; read-out: Minimum Inhibitory Concentration
[14] = tested on: Escherichia coli TEM3 3455E; experiment: microbe, parasite or virus in culture; format: cell-based; settings: TEM33455E, 18 h, read-out: Minimum Inhibitory Concentration
[15] = tested on: Staphylococcus aureus 241; experiment: In vitro antibacterial activity (MIC, agar dilution), Biological Example 1; format: cell-based; settings: 18 h; Staphylococcus aureus 241, Table 25; read-out: Minimum Inhibitory Concentration
[16] = tested on: Pseudomonas aeruginosa 1912E; experiment: as above; format: cell-based; settings: 18 h, read-out: Minimum Inhibitory Concentration
[17] = tested on: Citrobacter diversus 2046E; experiment: as above; format: cell-based; settings: Citrobacter koseri, 18 h, Table 25, read-out: Minimum Inhibitory Concentration
[18] = tested on: Staphylococcus aureus 6538p; experiment: as above; format: cell-based; settings: 18 h, Table 25, read-out: Minimum Inhibitory Concentration
[19] = phosphate buffered solution
physchem = settings: phosphate buffered solution
[20] = Pseudomonas aeruginosa 1912E, Table 25

SMILES	MIC (Staphylococcus aureus 77) [µg/mL]	MIC [2] [µg/mL]	MIC [3] [µg/mL]	MIC [4] [µg/mL]	MIC [5] [µg/mL]	MIC (Enterobacter cloacae P99) [µg/mL]	MIC [6] [µg/mL]	MIC [7] [µg/mL]	MIC (Escherichia coli 3190Y) [µg/mL]	MIC (Escherichia coli 10536) [µg/mL]	MIC [8] [µg/mL]	MIC (Escherichia coli 851E) [µg/mL]	MIC (Bacillus subtilis 6633) [µg/mL]	MIC [9] [µg/mL]	MIC (Micrococcus luteus 9341) [µg/mL]	MIC [10] [µg/mL]	MIC [11] [µg/mL]	MIC [12] [µg/mL]	MIC [13] [µg/mL]	MIC [14] [µg/mL]	further results
CON=C1CN(c2nc3c(cc2F)c(=O)c(C(=O)O)cn3C2CC2)CC1CN (centres unmarked) [Anhydrate, 7-(4-aminomethyl-3-methyloxyiminopyrrolidin-1-yl)-1-cyclopropyl-6-fluoro-4-oxo-1,4-dihydro-1,8-naphthyridine-3-carboxylic acid methanesulfonate anhydride]	–	–	–	–	–	–	–	–	–	–	–	–	–	–	–	–	–	–	–	–	thermal stability [1]: 99%; remaining at 336 h ([1]; thermal stability, 2 weeks, 70° C.): 97%; remaining at 672 h ([1]; thermal stability, 4 weeks, 70° C.): 95%
CC(C)(C)ON=C1CN(c2nc3c(cc2F)c(=O)c(C(=O)O)cn3C2CC2)CC1CN (centres unmarked) [Example 89, 7-(4-aminomethyl-3-t-butyloxyimino-pyrrolidin-1-yl)-1-cyclopropyl-6-fluoro-1,4-dihydro-4-oxo-1,8-naphthyridine-3-carboxylic acid]	≤ 0.008	≤ 0.008	0.031 (≈ 0.0718 µM)	0.25 (≈ 0.579 µM)	0.063 (≈ 0.146 µM)	0.016 (≈ 0.0371 µM)	≤ 0.008	0.5 (≈ 1.16 µM)	0.016 (≈ 0.0371 µM)	0.016 (≈ 0.0371 µM)	0.5 (≈ 1.16 µM)	0.063 (≈ 0.146 µM)	≤ 0.008	0.13 (≈ 0.301 µM)	0.25 (≈ 0.579 µM)	0.13 (≈ 0.301 µM)	0.063 (≈ 0.146 µM)	0.13 (≈ 0.301 µM)	2 (≈ 4.64 µM)	0.25 (≈ 0.579 µM)	Cmax (Pharmacokinetic test; PO): 4890 ± 2230 ng/mL; half-life (Pharmacokinetic test; PO): 6.69 ± 2.78 h; Tmax (Pharmacokinetic test; PO): 2.18 ± 0.77 h; bioavailability (Pharmacokinetic test): > 100%; half-life (Pharmacokinetic test; IV): 2.29 ± 1.13 h; MIC [15]: 1 µg/mL (≈ 2.32 µM); MIC [16, 20]: 2 µg/mL (≈ 4.64 µM); MIC [17]: 0.13 µg/mL (≈ 0.301 µM); MIC [18]: ≤ 0.008 µg/mL
CON=C1CN(c2c(F)cc3c(=O)c(C(=O)O)cn(C4CC4)c3c2F)CC1CN (centres unmarked) [Example 177]	0.016 (≈ 0.0394 µM)	≤ 0.008	0.13 (≈ 0.32 µM)	0.063 (≈ 0.155 µM)	0.063 (≈ 0.155 µM)	0.016 (≈ 0.0394 µM)	≤ 0.008	1 (≈ 2.46 µM)	≤ 0.008	≤ 0.008	0.13 (≈ 0.32 µM)	0.031 (≈ 0.0763 µM)	≤ 0.008	0.063 (≈ 0.155 µM)	0.063 (≈ 0.155 µM)	0.063 (≈ 0.155 µM)	0.031 (≈ 0.0763 µM)	0.13 (≈ 0.32 µM)	0.5 (≈ 1.23 µM)	0.25 (≈ 0.615 µM)	Cmax (Pharmacokinetic test; PO): 370 ± 110 ng/mL; half-life (Pharmacokinetic test; PO): 3.93 ± 1.31 h; Tmax (Pharmacokinetic test; PO): 0.51 ± 0.33 h; bioavailability (Pharmacokinetic test): 47.2%; half-life (Pharmacokinetic test; IV): 1.92 ± 0.38 h; MIC [15]: 0.5 µg/mL (≈ 1.23 µM); MIC [16, 20]: 0.5 µg/mL (≈ 1.23 µM); MIC [17]: 0.031 µg/mL (≈ 0.0763 µM); MIC [18]: ≤ 0.008 µg/mL
CC1COc2c(N3CCN(C)CC3)c(F)cc3c(=O)c(C(=O)O)cn1c23 (centres unmarked) [OFLX, ofloxacin, reference compound]	0.25 (≈ 0.692 µM)	0.25 (≈ 0.692 µM)	0.25 (≈ 0.692 µM)	0.063 (≈ 0.174 µM)	0.063 (≈ 0.174 µM)	≤ 0.008	0.25 (≈ 0.692 µM)	32 (≈ 88.6 µM)	0.016 (≈ 0.0443 µM)	0.031 (≈ 0.0858 µM)	0.25 (≈ 0.692 µM)	0.063 (≈ 0.174 µM)	0.063 (≈ 0.174 µM)	0.13 (≈ 0.36 µM)	2 (≈ 5.53 µM)	0.063 (≈ 0.174 µM)	2 (≈ 5.53 µM)	0.5 (≈ 1.38 µM)	2 (≈ 5.53 µM)	0.5 (≈ 1.38 µM)	MIC [15]: 64 µg/mL (≈ 177 µM); MIC ([16]; Pseudomonas aeruginosa, 1912E): 0.5 µg/mL (≈ 1.38 µM); MIC [17]: 0.063 µg/mL (≈ 0.174 µM); MIC [18]: 0.25 µg/mL (≈ 0.692 µM)
CON=C1CN(c2nc3c(cc2F)c(=O)c(C(=O)O)cn3C2CC2)CC1CN (centres unmarked) [Sulfurate]	–	–	–	–	–	–	–	–	–	–	–	–	–	–	–	–	–	–	–	–	Water Solubility ([19]; pH 2): 8.9; Water Solubility ([19]; pH 7): 11.4
CON=C1CN(c2nc3c(cc2F)c(=O)c(C(=O)O)cn3C2CC2)CC1CN (centres unmarked) [Tartarate]	–	–	–	–	–	–	–	–	–	–	–	–	–	–	–	–	–	–	–	–	solubility (physchem; pH 2): 15.4 mg/mL (≈ 39500 µM); solubility (physchem; pH 7): 6.7 mg/mL (≈ 17200 µM)
